Test results published in patent US10882837B2, “Amide compounds and use thereof” (ALPHALA CO., LTD., priority 2017, dated 2021).
pIC50: −log10 of the molar value.

Experiments:
[1] = target: T1, glucagon receptor (GCGR) (Homo sapiens, UniProt P47871); assay: Glucagon cAMP inhibition assay (Cisbio cAMP Dynamic 2 HTRF); format: cell-based; details: GCGR overexpressed CHO-K1 cells or human primary hepatocytes (not specified); glucagon at EC50
T1 construct: expressed in transfected cells; host or cells: CHO-K1
Procedure, shortened: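 GCGR-overexpressing CHO-K1 cells or human primary hepatocytes in HBSS with 0.1% BSA and 800 nM IBMX, pre-incubated 30 min with compound (1% DMSO final), then stimulated 30 min at room temperature with glucagon at its EC50. cAMP measured by HTRF after 60 min lysis; IC50 from non-linear regression.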

[2] = target: T2, GCGR (Homo sapiens, UniProt P47871); assay: I125-glucagon binding assay (competition, GCGR membrane fractions); parameters: expressed in transfected cells; host or cells: CHO-K1; inhibition: dose or concentration left out as unconfirmed; details: for pIC50: competition with I125-glucagon 0.0625 nM, membrane fractions from GCGR overexpressed CHO-K1 cells
Procedure, shortened: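 Membranes from CHO-K1 cells overexpressing GCGR (7.5 µg/well) were preincubated 5 min with serially diluted compound in 50 mM Tris pH 7.4, 0.5% BSA. I125-glucagon was then added at 0.0625 nM final and incubated 30 min at 25 °C. After filtration, bound radioactivity was counted and IC50 derived by non-linear regression.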
Target sequence in this assay (P47871 26-477, species assumed): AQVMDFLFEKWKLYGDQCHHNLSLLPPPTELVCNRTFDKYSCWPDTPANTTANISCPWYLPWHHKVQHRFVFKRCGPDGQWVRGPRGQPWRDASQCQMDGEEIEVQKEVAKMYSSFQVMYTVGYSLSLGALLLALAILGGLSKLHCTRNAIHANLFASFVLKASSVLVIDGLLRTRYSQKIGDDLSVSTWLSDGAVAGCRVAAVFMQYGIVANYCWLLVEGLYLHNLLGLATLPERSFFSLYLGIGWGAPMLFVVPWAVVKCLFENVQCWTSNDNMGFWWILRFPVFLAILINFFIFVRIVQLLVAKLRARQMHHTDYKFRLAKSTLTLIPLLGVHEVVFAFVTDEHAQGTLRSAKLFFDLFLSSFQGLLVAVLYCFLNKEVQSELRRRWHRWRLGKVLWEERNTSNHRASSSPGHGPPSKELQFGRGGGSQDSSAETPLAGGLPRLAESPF

[3] = target: T2, GCGR; assay: HTRF cAMP assay in primary human hepatocytes stimulated with recombinant glucagon; format: cell-based; parameters: endogenous in cells; host or cells: primary human hepatocytes
Protocol: Downstream secondary messenger eAMP induced by glucagon was detected by Cisbio cAMP Dynamic 2 kit. Testing compounds were each prepared as a dimethyl sulfoxide (DMSO) solution at the concentration of 10 mM. To evaluate the potency of compounds in inhibiting the cAMP production, glucagon receptor (GCGR) overexpressed CHO-K1 cells or human primary hepatocytes were treated with compounds with a serial dilution. The cells were re-suspended in Hank's Balanced Salt solution (HBSS) contained 0.1% (w/v) bovine serum albumin and 800 nM 3-isobutyl-1-methylxanthine (IBMX) and seeded into low volume, 384 wells white plate. The diluted compounds were then added into the plate for 30 minutes pre-incubation where the final DMSO concentration was 1%. The cells were stimulated with glucagon at the concentration equaled to EC50 (an indicium of the concentration of a drag that gives half-maximal response) for 30 minutes at room temperature. After incubation, lysis buffer contain cAMP antibody and fluorescence acceptor were added into each well for additional 60 minutes incubation.
The HTRF cAMP assay was performed by following the manufacturer guidance. Primary human hepatocytes, pre-incubated with tested compounds at various concentrations, were stimulated with recombinant glucagon and the IC50 values were determined by the non-linear regression based on the amount of cAMP production.
Target sequence in this assay (P47871 26-477): as the sequence (P47871 26-477, species assumed) above

T1 sequence (P47871 26-477, species assumed): as above

Structure (SMILES) | pIC50 [1] | pIC50 [2] | pIC50 [3] | inhibition ([2]; read-out: percentage of inhibition (number in parenthesis in IC50 binding column)) [%]
CC(C)[C@H](Nc1ccc(C(=O)NCCC(=O)O)cn1)c1ccc(-c2nc3ccccc3o2)cc1 [Compound 4-30, (S)-3-(6-((1-(4-(benzo[d]oxazol-2-yl)phenyl)-2-methylpropyl)amino)nicotinamido)propanoic acid] | 5.62 | 7.38 | 7.28 | 
CCC(C)[C@H](Nc1ccc(C(=O)NCCC(=O)O)cc1)c1ccc(-c2nnc(-c3ccccc3)o2)cc1 (stereo partly drawn) [Compound 1-49, 3-(4-(((1S)-2-methyl-1-(4-(5-phenyl-1,3,4-oxadiazol-2-yl)phenyl)butyl)amino)benzamido)propanoic acid] | 5.69 | 7.04 | 7.72 | 
CC(C)[C@H](Nc1ccc(C(=O)NCCC(=O)O)cn1)c1ccc(-c2nc3ccccc3s2)cc1 [Compound 4-28, (S)-3-(6-((1-(4-(benzo[d]thiazol-2-yl)phenyl)-2-methylpropyl)amino)nicotinamido)propanoic acid] | 5.57 | 7.32 | 7.21 | 
CCC(C)[C@H](Nc1ccc(C(=O)NCCC(=O)O)cc1)c1ccc(-c2noc(-c3ccccc3)n2)cc1 (stereo partly drawn) [Compound 2-19, 3-(4-(((1S)-2-methyl-1-(4-(5-phenyl-1,2,4-oxadiazol-3-yl)phenyl)butyl)amino)benzamido)propanoic acid] | 6.32 | 7.31 | 7.82 | 
CCOC(=O)CCNC(=O)c1ccc(NC(CC(C)C)c2ccc(-c3noc(-c4ccccc4)n3)cc2)cc1 (stereo not shown) [Compound 2-9, ethyl 3-(4-((3-methyl-1-(4-(5-phenyl-1,2,4-oxadiazol-3-yl)phenyl)butyl)amino)benzamido)propanoate] | 6.98 | 5.83 |  | 31
CC(C)[C@H](Nc1ccc(C(=O)NCCC(=O)O)cc1)c1ccc(-c2nnc(-c3ccccc3)o2)cc1 [Compound 1-41, (S)-3-(4-(2-methyl-1-(4-(5-phenyl-1,3,4-oxadiazol-2-yl)phenyl)propylamino)benzamido)propanoic acid] | 5.57 | 6.97 |  | 
CC(C)[C@@H](Nc1ccc(C(=O)NCCC(=O)O)cc1)c1ccc(-c2nc3ccccc3o2)cc1 [Compound 4-8, (R)-3-(4-((1-(4-(benzo[d]oxazol-2-yl)phenyl)-2-methylpropyl)amino)benzamido)propanoic acid] | 5.97 | 6.43 |  | 
